According to patent US7192906B2, “Substituted pyrazole derivatives, production process thereof, and herbicide compositions containing the derivatives” (SDS Biotech K.K., priority 2001, dated 2007):

Columns and labels:
Assay type in all cases: in vivo
Chenopodium album [1] = assay: Test Example 1 upland field foliage treatment; conditions: Table 4, upland field foliage treatment, index 0-5
Outline: (§1)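 Scores are visual 0–5 ratings of herbicidal effect or crop injury (0: under 10%; 5: 90% or more) taken 21 days after treatment. Plants grew from seed in upland soil for 14 days, then foliage received the compound as a water-diluted wettable powder at 1 kg/ha active ingredient.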

Digitaria adscendens [2] = assay: Test Example 1 upland field foliage treatment; conditions: Table 4, upland field foliage treatment, index 0-5
Outline: as §1

Setaria viridis [3] = assay: Test Example 1 upland field foliage treatment; conditions: Table 4, upland field foliage treatment, index 0-5
Outline: as §1

Stellaria media [4] = assay: Test Example 1 upland field foliage treatment; conditions: Table 4, upland field foliage treatment, index 0-5
Outline: as §1

soybean (Glycine max) [5] = assay: Test Example 1 upland field foliage treatment, crop phytotoxicity; conditions: Table 4, upland field foliage treatment, index 0-5
Outline: as §1

[6] = system: wheat (Triticum aestivum); assay: as above; conditions: Table 4, upland field foliage treatment, index 0-5
Outline: as §1

Chenopodium album [7] = assay: Test Example 2 upland soil treatment; conditions: Table 5, upland soil treatment, index 0-5
Outline: (§2)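 Visual 0–5 grading of herbicidal effect or phytotoxicity, made 21 days after a single pre-emergence soil-surface application at 1 kg a.i./ha.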

Digitaria adscendens [8] = assay: Test Example 2 upland soil treatment; conditions: Table 5, upland soil treatment, index 0-5
Outline: as §2

Setaria viridis [9] = assay: Test Example 2 upland soil treatment; conditions: Table 5, upland soil treatment, index 0-5
Outline: as §2

Stellaria media [10] = assay: Test Example 2 upland soil treatment; conditions: Table 5, upland soil treatment, index 0-5
Outline: as §2

soybean (Glycine max) [11] = assay: Test Example 2 upland soil treatment, crop phytotoxicity; conditions: Table 5, upland soil treatment, index 0-5
Outline: as §2

[12] = system: wheat (Triticum aestivum); assay: as above; conditions: Table 5, upland soil treatment, index 0-5
Outline: as §2

Ammannia multiflora = assay: Test Example 3 paddy field treatment; conditions: Table 6, paddy field treatment, active ingredient 1 kg per hectare, 21st day after dropping, index 0-5
Outline: (§3)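 Weed seeds sown in puddled paddy soil under 4 cm water, with two-leaf Koshihikari rice transplanted; 10 days later a wettable powder was applied to the water surface at 1 kg active ingredient/ha. Scored 21 days after application on a 0–5 scale (0 = <10%, 5 = ≥90% herbicidal effect or phytotoxicity).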

Echinochloa crusgalli = assay: Test Example 3 paddy field treatment; conditions: Table 6, paddy field treatment, active ingredient 1 kg per hectare, 21st day after dropping, index 0-5
Outline: as §3

Monochoria vaginalis = assay: Test Example 3 paddy field treatment; conditions: Table 6, paddy field treatment, active ingredient 1 kg per hectare, 21st day after dropping, index 0-5
Outline: as §3

Scirpus juncoides = assay: Test Example 3 paddy field treatment; conditions: Table 6, paddy field treatment, active ingredient 1 kg per hectare, 21st day after dropping, index 0-5
Outline: as §3

Rice (Oryza sativa) = assay: Test Example 3 paddy field treatment, crop phytotoxicity; conditions: Table 6, paddy field treatment, transplanted rice, active ingredient 1 kg per hectare, 21st day after dropping, index 0-5
Outline: as §3

CNC(=O)C(Cn1cc(C)c(-c2ccccc2)n1)=NOCF [Compound 103]
Herbicidal activity CA: Chenopodium album (Chenopodium album [1]): 5 (herbicidal effect of not less than 90%, or phytotoxicity of 90% or more)
Herbicidal activity DA: Digitaria adscendens (Digitaria adscendens [2]): 4 (herbicidal effect of not less than 70% and less than 90%, or phytotoxicity of 70% or more and less than 90%)
Herbicidal activity SV: Setaria viridis (Setaria viridis [3]): 3 (herbicidal effect of not less than 50% and less than 70%, or phytotoxicity of 50% or more and less than 70%)
Herbicidal activity SM: Stellaria media (Stellaria media [4]): 5 (herbicidal effect of not less than 90%, or phytotoxicity of 90% or more)
Herbicidal activity (phytotoxicity) GM: Soybean (Glycine max) (soybean (Glycine max) [5]): 0 (herbicidal effect of not less than 0% and less than 10%, or phytotoxicity of 0% or more and less than 10%)
Herbicidal activity (phytotoxicity) TA: Wheat (Triticum aestivum) [6]: 0 (herbicidal effect of not less than 0% and less than 10%, or phytotoxicity of 0% or more and less than 10%)
Herbicidal activity CA: Chenopodium album (Chenopodium album [7]): 5 (herbicidal effect of not less than 90%, or phytotoxicity of 90% or more)
Herbicidal activity DA: Digitaria adscendens (Digitaria adscendens [8]): 5 (herbicidal effect of not less than 90%, or phytotoxicity of 90% or more)
Herbicidal activity SV: Setaria viridis (Setaria viridis [9]): 4 (herbicidal effect of not less than 70% and less than 90%, or phytotoxicity of 70% or more and less than 90%)
Herbicidal activity SM: Stellaria media (Stellaria media [10]): 5 (herbicidal effect of not less than 90%, or phytotoxicity of 90% or more)
Herbicidal activity (phytotoxicity) GM: Soybean (Glycine max) (soybean (Glycine max) [11]): 0 (herbicidal effect of not less than 0% and less than 10%, or phytotoxicity of 0% or more and less than 10%)
Herbicidal activity (phytotoxicity) TA: Wheat (Triticum aestivum) [12]: 0 (herbicidal effect of not less than 0% and less than 10%, or phytotoxicity of 0% or more and less than 10%)
Herbicidal activity AM (Ammannia multiflora): 5 (herbicidal effect of not less than 90%, or phytotoxicity of 90% or more)
Herbicidal activity EC (Echinochloa crusgalli): 5 (herbicidal effect of not less than 90%, or phytotoxicity of 90% or more)
Herbicidal activity MV (Monochoria vaginalis): 5 (herbicidal effect of not less than 90%, or phytotoxicity of 90% or more)
Herbicidal activity SJ (Scirpus juncoides): 5 (herbicidal effect of not less than 90%, or phytotoxicity of 90% or more)
Herbicidal activity (phytotoxicity) OS (Rice (Oryza sativa)): 0 (herbicidal effect of not less than 0% and less than 10%, or phytotoxicity of 0% or more and less than 10%)
